Experimental data published in patent US20240049707A1, “PESTICIDE COMPOSITIONS OF LICOCHALCONE C” (METABOLIC INSIGHTS LTD., priority 2020, published 2024).

Assays:
Fusarium oxysporum = assay: Microplate based screening of bioactivity against Fusarium oxysporum; assay type: cell-based; settings: 10 μl of 250 ppm solution + 40 μl inoculum, activity grade x repeats x days of activity/252 x 100
Procedure: Diluted in DMSO Licochalcone C was added to microplate wells and mixed with freshly prepared spore suspension and growth of the fungus, starting from frozen spores, was monitored using the plate reader and by visual inspection. […]
Microplate Preparation for Licochalcone C Bioactivity Experiment: • 1) Take a stock solution of purified 1% Licochalcone C in DMSO from the −20 freezer and thaw it on the bench. • 2) Take 1 μl of stock solution of 1% Licochalcone C and dilute up to 250 ppm with 39 μl of water. • 3) Take 10 μl of the diluted (250 ppm) Licochalcone C solution into the wells of the microplate using a multi-pipette. • 4) Add 40 μl of vigorously mixed spore suspension inoculum to the wells of the microplate using a multi-pipette. • 5) Seal the plate with transparent sealer • 6) Shake the plate for 10 min at 2000 RPM to mix the materials with the hyphae suspension • 7) Centrifugate the plate at 1000RCF for is and stop to collect the liquid at the bottom of the plate • 8) Keep the microplate on the bench until it is read by the plate reader • 9) Read the plate using the plate reader • 10) Collect the plates on the bench • 11) Insert collected plates to a plastic box with cloth cover and put the box in the incubator at 25° C. […]

Pseudomonas syringae = assay: Microplate based screening of bioactivity against Pseudomonas syringae; assay type: cell-based; settings: 10 μl of 250 ppm solution + 40 μl inoculum, activity grade x repeats x days of activity/168 x 100
Procedure: Pseudomonas Suspension Preparation: • 1) Grow Pseudomonas on LBA plates at 28° C. for 2 days to get a single colony • 2) Transfer a single colony using a sterile toothpick into a 50 ml sterile tube containing 5 ml LB and grow for 24 at 28° C. and 150 RPM • 3) Chill the tube in the fridge for 1 h • 4) Add 7.5 ml of fridge cold, sterile, glycerol solution to the tube—to get 60% glycerol solution • 5) Mix well but gently to get perfect mixing—use vortex at 1000 RPM • 6) Aliquot 100 μl of bacteria suspension in 60% glycerol into 1.5 ml tubes—each aliquot should be enough for screening of 10 microplates • 7) Store the bacteria suspension in 60% glycerol at −20° C.
Pseudomonas Suspension Preparation for Bioactivity Screening Experiment: • 1) Take 1.5 ml tube with 100 μl frozen Pseudomonas suspension from the freezer and thaw it on ice • 2) Prepare in the hood 50 ml tubes with 40 ml fridge cold LB • 3) Mix 40 μl of bacteria suspension with 40 ml fridge cold LB in a 50 ml tube. This amount is enough for activity screening of 10 microplates • 4) Use this suspension for bioactivity screening experiments […]

For `COc1c(/C=C/C(=O)c2ccc(O)cc2)ccc(O)c1CC=C(C)C` [Licochalcone C, (E)-3-[4-hydroxy-2-methoxy-3-(3-methylbut-2-enyl)phenyl]-1-(4-hydroxyphenyl)prop-2-en-1-one], the “Relative Activity value (%)” value (Fusarium oxysporum) was 25% and the “Relative Activity value (%)” value (Pseudomonas syringae) was 50%.
